Values joined by “and” are separate entries in the source; they are usually repeats but may differ in a detail not shown here. Equal values may be shown once. Toxic doses and inconclusive results are not listed. The calls were made as follows: active = survival T/C of 150% or more; inactive = T/C below 125% in these data.
System: B6C3F1 mice, B16 melanoma ip, median survival T/C
Experiment: NCI In Vivo Anticancer Drug Screen. Data for tumor model B16 Melanoma (intraperitoneal) in B6C3F1 mice
Conditions: endpoint: median survival time, higher = longer survival
Description: The antitumor activity of compounds was measured in mice bearing transplantable tumors. Survival or tumor size were measured and the results are expressed as the measurement made in the treated group (T) divided by the measurement made in the vehicle treated control group (C). The tumor model used in this assay is B16 Melanoma (intraperitoneal) in B6C3F1 mice

[1] = dose: 25.0 mg/kg/injection, schedule: Q01DX009 (ip), vehicle: saline with Tween-80
[2] = dose: 50.0 mg/kg/injection, schedule: Q01DX009 (ip), vehicle: saline with Tween-80
[3] = dose: 100.0 mg/kg/injection, schedule: Q01DX009 (ip), vehicle: saline with Tween-80
[4] = dose: 25.0 mg/kg/injection, schedule: Q01DX009 (ip), vehicle: Klucel (hydroxypropylcellulose) (HPC)
[5] = dose: 50.0 mg/kg/injection, schedule: Q01DX009 (ip), vehicle: Klucel (hydroxypropylcellulose) (HPC)
[6] = dose: 100.0 mg/kg/injection, schedule: Q01DX009 (ip), vehicle: Klucel (hydroxypropylcellulose) (HPC)
[7] = dose: 12.5 mg/kg/injection, schedule: Q01DX009 (ip), vehicle: saline
[8] = dose: 25.0 mg/kg/injection, schedule: Q01DX009 (ip), vehicle: saline
[9] = dose: 50.0 mg/kg/injection, schedule: Q01DX009 (ip), vehicle: saline
[10] = dose: 25.0 mg/kg/injection, schedule: Q01DX009 (ip), vehicle: distilled water + Tween-80
[11] = dose: 200.0 mg/kg/injection, schedule: Q01DX009 (ip), vehicle: Klucel (hydroxypropylcellulose) (HPC)
[12] = dose: 400.0 mg/kg/injection, schedule: Q01DX009 (ip), vehicle: Klucel (hydroxypropylcellulose) (HPC)
[13] = dose: 100.0 mg/kg/injection, schedule: Q01DX009 (ip), vehicle: saline
[14] = dose: 200.0 mg/kg/injection, schedule: Q01DX009 (ip), vehicle: saline

Measured: T/C

COc1ccc(NC(=O)Oc2ccc3c(C)cc(=O)oc3c2)c(OC)c1
inactive: [1] 99 % of control | [2] 94 % of control | [3] 99 % of control | dose: 200.0 mg/kg/injection, schedule: Q01DX009 (ip), vehicle: saline with Tween-80 100 % of control | dose: 400.0 mg/kg/injection, schedule: Q01DX009 (ip), vehicle: saline with Tween-80 98 % of control

NCCCCC(NC(=O)OCC1c2ccccc2-c2ccccc21)C(=O)O (stereo not given)
inactive: [4] 92 % of control | [5] 101 % of control | [6] 97 % of control and 100 % of control

C=C1C(=O)O[C@@H]2C[C@@H](C)[C@@H]3C=CC(=O)[C@@]3(C)[C@@H](OC(=O)CC(=O)O[C@H]3[C@@H]4C(=C)C(=O)O[C@@H]4C[C@@H](C)[C@@H]4C=CC(=O)[C@]43C)[C@H]12
inactive: dose: 0.25 mg/kg/injection, schedule: Q01DX009 (ip), vehicle: saline with Tween-80 88 % of control | dose: 0.5 mg/kg/injection, schedule: Q01DX009 (ip), vehicle: saline with Tween-80 96 % of control | dose: 1.0 mg/kg/injection, schedule: Q01DX009 (ip), vehicle: saline with Tween-80 102 % of control | dose: 2.0 mg/kg/injection, schedule: Q01DX009 (ip), vehicle: saline with Tween-80 110 % of control | dose: 4.0 mg/kg/injection, schedule: Q01DX009 (ip), vehicle: saline with Tween-80 116 % of control

CNC(=O)ON(C(C)=O)C(=O)NC
inactive: [7] 102 % of control | [8] 107 % of control | [9] 102 % of control

CSc1ccc2c(c1)C(N1CCN(C)CC1)Cc1ccccc1S2 (stereo not given)
inactive: dose: 1.56 mg/kg/injection, schedule: Q01DX009 (ip), vehicle: saline with Tween-80 105 % of control | dose: 3.12 mg/kg/injection, schedule: Q01DX009 (ip), vehicle: saline with Tween-80 108 % of control | dose: 6.25 mg/kg/injection, schedule: Q01DX009 (ip), vehicle: saline with Tween-80 105 % of control | dose: 12.5 mg/kg/injection, schedule: Q01DX009 (ip), vehicle: saline with Tween-80 98 % of control | [1] 94 % of control | [2] 88 % of control

Cc1nc(N)nc(N)c1-c1ccc(Cl)c(Cl)c1
inactive: dose: 0.31 mg/kg/injection, schedule: Q01DX009 (ip), vehicle: saline with Tween-80 102 % of control | dose: 0.62 mg/kg/injection, schedule: Q01DX009 (ip), vehicle: saline 116 % of control | dose: 0.63 mg/kg/injection, schedule: Q01DX009 (ip), vehicle: saline with Tween-80 104 % of control | dose: 1.25 mg/kg/injection, schedule: Q01DX009 (ip), vehicle: saline with Tween-80 102 % of control | dose: 1.25 mg/kg/injection, schedule: Q01DX009 (ip), vehicle: saline 101 % of control and 102 % of control | dose: 2.5 mg/kg/injection, schedule: Q01DX009 (ip), vehicle: saline with Tween-80 113 % of control | dose: 2.5 mg/kg/injection, schedule: Q01DX009 (ip), vehicle: saline 116 % of control

c1ccc(P(CCNCCP(c2ccccc2)c2ccccc2)c2ccccc2)cc1
inactive: [1] 113 % of control | [2] 105 % of control | [3] 116 % of control

CCOC(=O)c1ccc(NC(=O)Nc2nc(C)cs2)cc1
inactive: dose: 12.5 mg/kg/injection, schedule: Q01DX009 (ip), vehicle: distilled water + Tween-80 120 % of control | [10] 120 % of control

CCOC(=O)C(CC(C)C)NC(=O)C(Cc1ccc(N(CCCl)CCCl)cc1)NC(C)=O (stereo not given)
active: dose: 64.0 mg/kg/injection, schedule: Q01DX009 (ip), vehicle: saline with Tween-80 160 % of control
inactive: dose: 8.0 mg/kg/injection, schedule: Q01DX009 (ip), vehicle: saline with Tween-80 105 % of control | dose: 16.0 mg/kg/injection, schedule: Q01DX009 (ip), vehicle: saline with Tween-80 102 % of control

Cc1c2ccnc(C(N)=O)c2c(C)c2c1[nH]c1ccccc12
inactive: dose: 62.0 mg/kg/injection, schedule: Q04DX003 (ip), vehicle: distilled water + Tween-80 96 % of control | dose: 125.0 mg/kg/injection, schedule: Q04DX003 (ip), vehicle: distilled water + Tween-80 120 % of control | dose: 200.0 mg/kg/injection, schedule: Q01DX009 (ip), vehicle: distilled water + Tween-80 117 % of control | dose: 250.0 mg/kg/injection, schedule: Q04DX003 (ip), vehicle: distilled water + Tween-80 106 % of control | dose: 400.0 mg/kg/injection, schedule: Q01DX009 (ip), vehicle: distilled water + Tween-80 123 % of control | dose: 500.0 mg/kg/injection, schedule: Q04DX003 (ip), vehicle: distilled water + Tween-80 100 % of control | dose: 1000.0 mg/kg/injection, schedule: Q04DX003 (ip), vehicle: distilled water + Tween-80 124 % of control

CCCCCCCCCCCCCCCCCC(=O)OCC(=O)OCC(=O)[C@]1(O)Cc2c(O)c3c(c(O)c2[C@@H](OC2CC(N)C(O)C(C)O2)C1)C(=O)c1c(OC)cccc1C3=O (stereo not given in full)
active: dose: 0.75 mg/kg/injection, schedule: Q01DX009 (ip), vehicle: saline 160 % of control and 211 % of control | dose: 1.5 mg/kg/injection, schedule: Q01DX009 (ip), vehicle: saline 208 % of control and 333 % of control | dose: 3.0 mg/kg/injection, schedule: Q01DX009 (ip), vehicle: saline 255 % of control and 333 % of control | dose: 6.0 mg/kg/injection, schedule: Q01DX009 (ip), vehicle: saline 238 % of control and 333 % of control

COc1ccc2ccccc2c1C1NC(=O)c2ccccc2N1 (stereo not given)
inactive: dose: 12.5 mg/kg/injection, schedule: Q01DX009 (ip), vehicle: Klucel (hydroxypropylcellulose) (HPC) 96 % of control | [4] 100 % of control | [5] 96 % of control | [6] 100 % of control | [11] 104 % of control | [12] 102 % of control

Cc1cc(NCCCCCCCCNc2cc(C)nc3cc(N(C)C)ccc23)c2ccc(N(C)C)cc2n1
inactive: dose: 3.12 mg/kg/injection, schedule: Q01DX009 (ip), vehicle: distilled water + Tween-80 105 % of control | dose: 6.25 mg/kg/injection, schedule: Q01DX009 (ip), vehicle: distilled water + Tween-80 115 % of control | [10] 121 % of control

O=C1CCC2=C3C4CCCC5OC6CC(=O)CCC6=C(C6CCCC(OC2C1)C36)C54 (stereo not given)
inactive: [9] 102 % of control | [13] 102 % of control | [14] 97 % of control | dose: 400.0 mg/kg/injection, schedule: Q01DX009 (ip), vehicle: saline 96 % of control

COC(=O)c1[nH]c(=O)[nH]c(=O)c1F
inactive: [9] 98 % of control | [13] 94 % of control | [14] 100 % of control

COc1cc(C(=O)c2cocc2C(=O)c2ccc3c(c2)OCO3)cc(OC)c1OC
inactive: [5] 92 % of control and 101 % of control | [6] 113 % of control and 91 % of control | [11] 112 % of control | [12] 117 % of control

NNC(=S)N/N=C/c1ccccn1
inactive: dose: 1.56 mg/kg/injection, schedule: Q01DX009 (ip), vehicle: saline 91 % of control | dose: 1.56 mg/kg/injection, schedule: Q01DX009 (ip), vehicle: suspension in saline 117 % of control | dose: 3.12 mg/kg/injection, schedule: Q01DX009 (ip), vehicle: saline 109 % of control | dose: 3.12 mg/kg/injection, schedule: Q01DX009 (ip), vehicle: suspension in saline 113 % of control | dose: 6.25 mg/kg/injection, schedule: Q01DX009 (ip), vehicle: saline 94 % of control | dose: 6.25 mg/kg/injection, schedule: Q01DX009 (ip), vehicle: suspension in saline 102 % of control | [7] 105 % of control | dose: 12.5 mg/kg/injection, schedule: Q01DX009 (ip), vehicle: suspension in saline 113 % of control | [8] 98 % of control

Nc1nc(-c2cccc(S(=O)(=O)O)c2)c([N+](=O)[O-])c(=O)[nH]1
inactive: dose: 12.88 mg/kg/injection, schedule: Q01DX009 (ip), vehicle: saline 99 % of control | dose: 25.75 mg/kg/injection, schedule: Q01DX009 (ip), vehicle: saline 96 % of control | dose: 51.5 mg/kg/injection, schedule: Q01DX009 (ip), vehicle: saline 109 % of control
